Results from patent publication US11793822B2, “Uses of Pulsatilla Chinensis extract in preparing drug for treating viral and/or bacterial diseases” (SICHUAN INLU WEITE PHARMACEUTICAL TECHNOLOGY CO., LTD., priority 2018, dated 2023).

Experiments:
[1] = design: species or system dairy cows; settings: in vivo
Excerpt: In addition, during the treatment of dairy cow mastitis, randomly selected the tested Pulsatilla Saponin B4 injection and entrusted the Sichuan Provincial Veterinary Drug Inspection Institute to conduct more than 200 antibiotic tests, and no antibiotic component was detected. […] Pulsatilla Saponin B4 has little effect on the immunoglobulin and inflammatory factors in the cow milk, thus can ensure the stability of the milk composition. In addition, since there is no residue, it will not affect the quality of fresh milk in dairy farms.

[2] = system: persistent clinical mastitis; experiment: Treatment of persistent clinical mastitis (Test Example 3); assay type: in vivo, cows; settings: 60 mL intramuscular injection once a day, after 3 administrations
Method: Pulsatilla Saponin B4 injection prepared by the preparation method of Example 3 at a concentration of 50 mg/mL;
The test selected 8 existing cows suffering from clinical mastitis in the dairy farm of Shijiazhuang Tianquan Dairy Cows Co., Ltd. These 8 cows have been treated for about a month but have not been cured (2 of them were close to dry, i.e., almost no milk was produced). These 8 cows have been treated by farm veterinarians, the treatment drugs and methods include udder infusing Cefquinome Sulfate Intramammary Infusion, intravenous injecting cephalosporins injection, and gavage with Gongying San ( ? ), etc.
To study the effect of Pulsatilla Saponin B4 injection on persistent clinical mastitis and the effect of Pulsatilla Saponin B4 injection on latent mastitis.
In the test, the Pulsatilla Saponin B4 injection prepared by the preparation method of Example 3 was used to treat 6 cows with persistent clinical mastitis and 2 cows with persistent clinical mastitis and close to dry. No matter how many udder areas were inflamed, intramuscular injection (60 mL) was taken once a day.

C=C(C)C1CC[C@]2(C(=O)O[C@@H]3O[C@H](CO[C@@H]4O[C@H](CO)[C@@H](O[C@@H]5O[C@@H](C)[C@H](O)[C@@H](O)[C@H]5O)[C@H](O)[C@H]4O)[C@@H](O)[C@H](O)C3O)CC[C@]3(C)[C@H](CC[C@@H]4[C@@]5(C)CC[C@H](O[C@@H]6OC[C@H](O)[C@H](O)[C@H]6O[C@@H]6O[C@@H](C)[C@H](O)[C@@H](O)[C@H]6O)C(C)(CO)[C@@H]5CC[C@]43C)[C@H]12 (stereo partly drawn) [Pulsatilla Saponin B4]
Effect on the immunoglobulin and inflammatory factors in the cow milk [1]: little effect | Treatment result of cows with persistent clinical mastitis close to dry ([2]; 2 cows close to dry): not effective | Treatment result of cows with persistent clinical mastitis ([2]; 6 cows treated about a month but not cured): four cows were cured, one cow improved significantly, and one cow showed no significant effect
